Experimental data from patent publication US11339171B2, “MDM2 inhibitors” (Gan & Lee Pharmaceuticals, priority 2017, dated 2022).
Where “and” joins values, the source holds several entries; their conditions need not be identical. Equal values may be shown once. Read-outs that look alike come from different tables or passages of the source.

Assays:
MDM2 = biological target: T1, MDM2 (Homo sapiens, UniProt Q00987); assay: Inhibition test of MDM2-P53 (GST-MDM2, Biotin-P53, Anti-GST-Tb, SA-XL665); type: binding
T1 construct: made in house
Method in brief: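 Binding was measured by TR-FRET with GST-MDM2 at 4 nM final in PBS with 0.1% BSA, 5 mM DTT and 1 mM AEBSF. Compounds were tested as twelve-point 5-fold dilutions and incubated with the detection mix for 90 min at 25 °C with shaking before plate-reader reading and curve fitting.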

[1] = tested on: human osteosarcoma cell line SJSA-1; assay: Inhibition of proliferation of human osteosarcoma cell line SJSA-1 (DAPI staining, In Cell Analyzer); settings: Homo sapiens, SJSA-1, 72 h, read-out: IC50 (nM), inhibitory activity on proliferation of human osteosarcoma cell line SJSA-1, SJSA-1, incubated 72 h
[2] = Pharmacokinetics in ICR mice after intravenous and intragastric administration; type: in vivo; settings: for MRT last: read-out: MRT(0-t); for MRT inf: read-out: MRT(0-∞); for Vd: read-out: Vz; for bioavailability: PO 5 mg/kg vs IV 2 mg/kg, from mean values, read-out: F* (bioavailability)
Method in brief: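 Plasma concentration-time data, quantified by LC-MS/MS with a 1 ng/mL lower limit, gave AUC, t1/2, MRT, Cmax, Tmax, bioavailability, Vz and clearance. Overnight-fasted male ICR mice (three per route) received 2 mg/kg intravenously or 5 mg/kg intragastrically.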

[3] = ICR mice, IV 2 mg/kg, individual animal, 2 mg/kg
[4] = ICR mice, PO 5 mg/kg, individual animal, 5 mg/kg
[5] = male, ICR, mouse, plasma, iv, 2 mg/kg, ICR mice, IV 2 mg/kg, individual animal
[6] = male, ICR, mouse, plasma, iv, 2 mg/kg, ICR mice, IV 2 mg/kg, individual animal, read-out: AUC(0-t)
[7] = male, ICR, mouse, plasma, iv, 2 mg/kg, ICR mice, IV 2 mg/kg, individual animal, read-out: Cmax
[8] = male, ICR, mouse, plasma, iv, 2 mg/kg, ICR mice, IV 2 mg/kg, individual animal, read-out: Tmax
[9] = male, ICR, mouse, plasma, iv, 2 mg/kg, ICR mice, IV 2 mg/kg, individual animal, read-out: t1/2 (converted)
[10] = male, ICR, mouse, plasma, iv, 2 mg/kg, ICR mice, IV 2 mg/kg, mean of 3 animals
[11] = male, ICR, mouse, plasma, iv, 2 mg/kg, ICR mice, IV 2 mg/kg, mean of 3 animals, read-out: AUC(0-t)
[12] = male, ICR, mouse, plasma, iv, 2 mg/kg, ICR mice, IV 2 mg/kg, mean of 3 animals, read-out: Cmax
[13] = male, ICR, mouse, plasma, iv, 2 mg/kg, ICR mice, IV 2 mg/kg, mean of 3 animals, read-out: Tmax
[14] = male, ICR, mouse, plasma, iv, 2 mg/kg, ICR mice, IV 2 mg/kg, mean of 3 animals, read-out: t1/2 (converted)
[15] = male, ICR, mouse, plasma, po, 5 mg/kg, ICR mice, PO 5 mg/kg, individual animal
[16] = male, ICR, mouse, plasma, po, 5 mg/kg, ICR mice, PO 5 mg/kg, individual animal, read-out: AUC(0-t)
[17] = male, ICR, mouse, plasma, po, 5 mg/kg, ICR mice, PO 5 mg/kg, individual animal, read-out: Cmax
[18] = male, ICR, mouse, plasma, po, 5 mg/kg, ICR mice, PO 5 mg/kg, individual animal, read-out: Tmax
[19] = male, ICR, mouse, plasma, po, 5 mg/kg, ICR mice, PO 5 mg/kg, individual animal, read-out: t1/2 (converted)
[20] = male, ICR, mouse, plasma, po, 5 mg/kg, ICR mice, PO 5 mg/kg, mean of 3 animals
[21] = male, ICR, mouse, plasma, po, 5 mg/kg, ICR mice, PO 5 mg/kg, mean of 3 animals, read-out: AUC(0-t)
[22] = male, ICR, mouse, plasma, po, 5 mg/kg, ICR mice, PO 5 mg/kg, mean of 3 animals, read-out: Cmax
[23] = male, ICR, mouse, plasma, po, 5 mg/kg, ICR mice, PO 5 mg/kg, mean of 3 animals, read-out: Tmax
[24] = male, ICR, mouse, plasma, po, 5 mg/kg, ICR mice, PO 5 mg/kg, mean of 3 animals, read-out: t1/2 (converted)
[25] = male, ICR, mouse, plasma, po, 5 mg/kg, oral intragastric administration 5 mg/kg, read-out: AUC0-t
[26] = male, ICR, mouse, plasma, po, 5 mg/kg, oral intragastric administration 5 mg/kg, read-out: half-life (converted)

T1 sequence (Q00987 whole entry): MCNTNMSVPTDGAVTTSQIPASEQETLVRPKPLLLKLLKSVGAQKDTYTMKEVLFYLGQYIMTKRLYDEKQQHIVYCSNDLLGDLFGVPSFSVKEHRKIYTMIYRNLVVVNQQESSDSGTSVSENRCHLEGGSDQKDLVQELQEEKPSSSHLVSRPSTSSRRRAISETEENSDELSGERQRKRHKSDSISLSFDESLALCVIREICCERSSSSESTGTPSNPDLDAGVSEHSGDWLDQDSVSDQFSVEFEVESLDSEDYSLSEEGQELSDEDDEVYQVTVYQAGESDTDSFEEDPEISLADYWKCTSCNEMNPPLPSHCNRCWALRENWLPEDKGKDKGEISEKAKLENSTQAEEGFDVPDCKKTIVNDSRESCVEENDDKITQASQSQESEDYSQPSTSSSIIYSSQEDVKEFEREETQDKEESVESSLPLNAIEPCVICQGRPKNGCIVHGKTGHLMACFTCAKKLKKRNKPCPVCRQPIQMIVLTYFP

## COc1nc(C2CC2)ncc1-c1nc2c(n1C(C)C)[C@@]1(C(=O)Nc3cc(Cl)ccc31)N(c1cc(Cl)ccc1C)C2=O [Example S-121, (S)-6-chloro-5′-(5-chloro-2-methylphenyl)-2′-(2-cyclopropyl-4-methoxypyrimidin-5-yl)-3′-isopropyl-3′H-spiro[dihydroindole-3,4′-pyrrolo[3,4-d]imidazole]-2,6′(5′H)-dione]
MDM2
  IC50: 3.35 nM
[1]
  IC50: 67 nM
[2]; [3]
  AUC(0-t): 26953.62 ng·h/mL and 24572.30 ng·h/mL
  AUC(0-∞): 27749.72 ng·h/mL and 25488.79 ng·h/mL
  CL: 1.20 mL/min/kg and 1.31 mL/min/kg
  Cmax: 3576.94 ng/mL and 3887.60 ng/mL
  MRT(0-t): 5.04 h and 5.26 h
  MRT(0-∞): 5.79 h and 6.22 h
  Vz: 0.53 L/kg and 0.62 L/kg
  t1/2: 5.09 h and 5.50 h
[2]; [4]
  AUC(0-t): 43063.09 ng·h/mL and 40782.54 ng·h/mL
  AUC(0-∞): 43407.01 ng·h/mL and 41032.91 ng·h/mL
  Cmax: 4835.52 ng/mL and 4714.57 ng/mL
  MRT(0-t): 5.27 h and 5.40 h
  MRT(0-∞): 5.45 h and 5.54 h
  Tmax: 4.00 h
  t1/2: 3.34 h and 3.14 h
[2]; [5]
  AUC(0-inf): 29400 ng·h/mL
  clearance: 1.14 mL/min/kg
  MRT last: 5.15 h
  MRT inf: 6.03 h
  Vd: 0.52 L/kg
[2]; [6]
  AUC(0-t): 28400 ng·h/mL
[2]; [7]
  Cmax: 3350 ng/mL
[2]; [8]
  Tmax: 0.08 h
[2]; [9]
  half-life: 5.25 h
[2]; [10]
  AUC(0-inf): 27500 ng·h/mL
  clearance: 1.21 mL/min/kg
  MRT last: 5.15 h
  MRT inf: 6.01 h
  Vd: 0.56 L/kg
[2]; [11]
  AUC(0-t): 26600 ng·h/mL
[2]; [12]
  Cmax: 3600 ng/mL
[2]; [13]
  Tmax: 0.083 h
[2]; [14]
  half-life: 5.28 h
[2]; [15]
  AUC(0-inf): 40300 ng·h/mL
  MRT last: 4.96 h
  MRT inf: 5.08 h
[2]; [16]
  AUC(0-t): 40100 ng·h/mL
[2]; [17]
  Cmax: 4920 ng/mL
[2]; [18]
  Tmax: 2 h
[2]; [19]
  half-life: 3.09 h
[2]; [20]
  AUC(0-inf): 41600 ng·h/mL
  MRT last: 5.21 h
  MRT inf: 5.36 h
[2]; [21]
  AUC(0-t): 41300 ng·h/mL
[2]; [22]
  Cmax: 4820 ng/mL
[2]; [23]
  Tmax: 3.33 h
[2]; [24]
  half-life: 3.19 h
[2]; [25]
  AUC(0-t): 41300 ng·h/mL
[2]; [26]
  half-life: 3.19 h
[2]; male, mouse, plasma, ICR mice
  bioavailability: 62%

## COc1cc(OC)c(-c2nc3c(n2C(C)C)[C@@]2(C(=O)Nc4cc(Cl)ccc42)N(c2cc(Cl)cnc2C)C3=O)cn1 [Example S-131, (S)-6-chloro-5′-(5-chloro-2-methylpyridin-3-yl)-2′-(4,6-dimethoxypyridin-3-yl)-3′-isopropyl-3′H-spiro[dihydroindole-3,4′-pyrrolo[3,4-d]imidazole]-2,6′(5′H)-dione]
MDM2
  IC50: 1.17 nM
[1]
  IC50: 46.3 nM
[2]; [3]
  AUC(0-t): 1579.23 ng·h/mL and 1776.79 ng·h/mL
  AUC(0-∞): 1594.10 ng·h/mL and 1788.59 ng·h/mL
  CL: 20.91 mL/min/kg and 18.64 mL/min/kg
  Cmax: 2021.33 ng/mL and 1997.01 ng/mL
  MRT(0-t): 0.90 h and 0.94 h
  MRT(0-∞): 0.96 h and 0.98 h
  Vz: 1.78 L/kg and 1.45 L/kg
  t1/2: 0.98 h and 0.90 h
[2]; [4]
  AUC(0-t): 5902.77 ng·h/mL and 6839.45 ng·h/mL
  AUC(0-∞): 6003.28 ng·h/mL and 7052.50 ng·h/mL
  Cmax: 1853.01 ng/mL and 1794.96 ng/mL
  MRT(0-t): 2.27 h and 2.45 h
  MRT(0-∞): 2.40 h and 2.68 h
  t1/2: 1.28 h and 1.47 h
[2]; [5]
  AUC(0-inf): 1260 ng·h/mL
  clearance: 26.4 mL/min/kg
  MRT last: 0.71 h
  MRT inf: 0.73 h
  Vd: 1.73 L/kg
[2]; [6]
  AUC(0-t): 1260 ng·h/mL
[2]; [7]
  Cmax: 1780 ng/mL
[2]; [8]
  Tmax: 0.08 h
[2]; [9]
  half-life: 0.76 h
[2]; [10]
  AUC(0-inf): 1550 ng·h/mL
  clearance: 22 mL/min/kg
  MRT last: 0.85 h
  MRT inf: 0.89 h
  Vd: 1.65 L/kg
[2]; [11]
  AUC(0-t): 1540 ng·h/mL
[2]; [12]
  Cmax: 1930 ng/mL
[2]; [13]
  Tmax: 0.083 h
[2]; [14]
  half-life: 0.88 h
[2]; [15]
  AUC(0-inf): 3770 ng·h/mL
  MRT last: 1.9 h
  MRT inf: 1.95 h
[2]; [16]
  AUC(0-t): 3740 ng·h/mL
[2]; [17]
  Cmax: 1440 ng/mL
[2]; [18]
  Tmax: 1 h
[2]; [19]
  half-life: 1.03 h
[2]; [20]
  AUC(0-inf): 5610 ng·h/mL
  MRT last: 2.21 h
  MRT inf: 2.34 h
[2]; [21]
  AUC(0-t): 5500 ng·h/mL
[2]; [22]
  Cmax: 1700 ng/mL
[2]; [23]
  Tmax: 1 h
[2]; [24]
  half-life: 1.26 h
[2]; [25]
  AUC(0-t): 5500 ng·h/mL
[2]; [26]
  half-life: 1.26 h
[2]; male, mouse, plasma, ICR mice
  bioavailability: 143%
